Experimental data: patent US7250442B2, “Dihydroindol-2-one derivatives as steroid hormone nuclear receptor modulators” (Eli Lilly and Company, priority 2003, dated 2007)

Molecular target: T1, human MR (Homo sapiens, UniProt P08235)
T1 construct: The full length human MR gene is cloned from a human kidney or human brain cDNA library; made in house; host or cells: Sf9 insect cells (baculovirus, pAcHLT transfer vector)
T1 sequence (P08235 1-984): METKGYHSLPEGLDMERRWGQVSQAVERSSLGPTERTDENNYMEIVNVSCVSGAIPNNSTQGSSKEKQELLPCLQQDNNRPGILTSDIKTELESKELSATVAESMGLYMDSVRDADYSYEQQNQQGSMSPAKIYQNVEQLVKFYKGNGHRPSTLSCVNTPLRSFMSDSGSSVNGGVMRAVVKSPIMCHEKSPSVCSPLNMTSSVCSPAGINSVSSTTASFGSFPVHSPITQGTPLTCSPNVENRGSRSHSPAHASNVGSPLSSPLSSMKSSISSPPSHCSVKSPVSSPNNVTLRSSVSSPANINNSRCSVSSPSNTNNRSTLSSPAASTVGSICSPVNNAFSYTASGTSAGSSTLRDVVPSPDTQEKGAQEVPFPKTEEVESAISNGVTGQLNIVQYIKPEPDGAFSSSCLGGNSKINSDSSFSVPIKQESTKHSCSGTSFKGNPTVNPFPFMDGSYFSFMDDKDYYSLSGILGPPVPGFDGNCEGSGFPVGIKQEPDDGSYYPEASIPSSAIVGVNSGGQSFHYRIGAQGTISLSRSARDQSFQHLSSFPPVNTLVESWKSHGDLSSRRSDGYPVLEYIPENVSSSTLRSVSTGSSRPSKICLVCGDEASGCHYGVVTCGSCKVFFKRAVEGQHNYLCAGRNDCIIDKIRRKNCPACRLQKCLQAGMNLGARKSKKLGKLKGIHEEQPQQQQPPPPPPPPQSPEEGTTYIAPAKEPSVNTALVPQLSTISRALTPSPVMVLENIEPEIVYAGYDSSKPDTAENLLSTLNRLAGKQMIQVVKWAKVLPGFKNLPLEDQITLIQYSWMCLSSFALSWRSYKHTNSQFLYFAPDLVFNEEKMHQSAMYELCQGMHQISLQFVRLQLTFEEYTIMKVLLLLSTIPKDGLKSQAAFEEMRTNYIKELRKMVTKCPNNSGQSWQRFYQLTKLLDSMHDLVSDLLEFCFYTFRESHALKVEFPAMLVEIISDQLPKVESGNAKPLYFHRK
Assay: Mineralocorticoid Receptor Binding Assay ([3H]-aldosterone displacement)
Conditions: full length human MR expressed in Sf9 cells, 0.5 nM [3H]-aldosterone
Experimental: Mineralocorticoid Receptor Binding Assay:
The full length human MR gene is cloned from a human kidney or human brain cDNA library. Briefly, using synthetic oligonucleotide primers (Eli Lilly and Company, Indianapolis) directed to nucleotides 20-54 and 3700-3666 of the human MR, polymerase chain reaction (PCR) is performed under standard conditions using a human cDNA library. The PCR reaction is performed in a final volume of 50 μl containing about 1 μl of a 50× stock solution of polymerase; about 1 μl of a 50× stock solution of dNTP; about 5 μl of an appropriate PCR buffer; about 1 μl of each primer; about 5 μl of a H. kidney or H. brain cDNA library; and about 36 μl of water. The reaction is allowed to denature for about 30 seconds at 95 degrees Celsius, anneal for about 30 seconds at 55 degrees Celsius, and extend for about 5 minutes at 72 degrees Celsius, the sequence being repeated for a total of about 35 cycles. The desired PCR product (3.68 Kb) is confirmed by gel electrophoresis and subsequently cut from the gel and stored at about −20 degrees Celsius until extraction. To extract the cDNA product from the agarose gel, the QIAEX II Gel Extraction protocol (QIAGEN, Inc.) is employed according to the manufacturer's instructions. Following extraction, the MR cDNA is cloned into an appropriate cloning vector (Zero Blunt TOPO PCR Cloning Kit (Invitrogen, Inc.) and a pAcHLT-baculovirus transfer vector (B.D./Pharminogen), then expressed in SF9 insect cells, essentially according to manufacturer's instructions. Sf9 cells are grown at a scale where gram quantity cell pellets are obtained for subsequent use in the MR binding assay. Harvested cell pellets are lysed by repeated freeze-thaw cycles (about 4) in a suitable lysis buffer then centrifuged at about 1×10^3 G (with the supernatant being saved for future assays).
MR binding assays are performed in a final total volume of about 250 μl containing about 20-25 μg of protein and 0.5 nM of [^3H]-aldosterone plus varying concentrations of test compound or vehicle. The assay binding buffer consists of 30 mM sodium molybdate, 30 mM of TRIS-HCl, 5 mM sodium phosphate, 5 mM sodium pyrophosphate, and about 10% glycerol, pH=7.5.
Briefly, assays are prepared at RT in 96-well Falcon 3072 plates, each well containing 210 μl of binding buffer, 10 μl of [^3H]-aldosterone, 10 μl of test compound/vehicle, and 20 μl of the resuspended receptor protein extract. Incubations are carried out at 4 degrees Celsius with shaking for about 16 hours. 200 μl aliquots of each incubation are filtered onto Millipore HA 0.45 micron 96-well filter plates, pre-moistened with cold 30 mM TRIS-HCl. The filter plates are suctioned dry with vacuum and immediately washed 3× with cold 30 mM TRIS-HCl. The plates are then punched out and the amount of receptor-ligand complex is determined by liquid scintillation counting using 4 ml of Ready Protein Plus™ liquid scintillation cocktail.
IC50 values (defined as the concentration of test compound required to decrease [^3H]-aldosterone binding by 50%) are then determined. Ki values for each respective test compound can then be calculated by application of the Cheng-Prusoff equation as described in Cheng et al., Relationship Between The Inhibition Constant (Ki) and The Concentration of Inhibitor Which Causes 50% Inhibition (IC50) of an Enzymatic Reaction, Biochem. Pharmacol., 22: 3099-31088; (1973).

Ki [nM]	SMILES
≤ 500	Cc1cc(C2(c3cc(C)c(O)c(C)c3)C(=O)N(Cc3ccccc3F)c3ccccc32)cc(C)c1O [Example 50, 1-(2-Fluoro-benzyl)-3,3-bis-(4-hydroxy-3,5-dimethyl-phenyl)-1,3-dihydro-indol-2-one]
≤ 500	Cc1cc(C2(c3cc(C)c(O)c(C)c3)C(=O)N(Cc3ccccc3C(F)(F)F)c3ccccc32)cc(C)c1O [Example 53, 3,3-Bis-(4-hydroxy-3,5-dimethyl-phenyl)-1-(2-trifluoromethyl-benzyl)-1,3-dihydro-indol-2-one]
≤ 500	Cc1cc(C2(c3cc(C)c(O)c(C)c3)C(=O)N(Cc3ccccc3-c3ccccc3)c3ccccc32)cc(C)c1O [Example 54, 1-Biphenyl-2-ylmethyl-3,3-bis-(4-hydroxy-3,5-dimethyl-phenyl)-1,3-dihydro-indol-2-one]
≤ 500	COc1cccc(CN2C(=O)C(c3cc(C)c(O)c(C)c3)(c3cc(C)c(O)c(C)c3)c3ccccc32)c1 [Example 56, 3,3-Bis-(4-hydroxy-3,5-dimethyl-phenyl)-1-(3-methoxy-benzyl)-1,3-dihydro-indol-2-one]
≤ 500	Cc1cc(C2(c3cc(C)c(O)c(C)c3)C(=O)N(Cc3ccc(Br)cc3)c3ccccc32)cc(C)c1O [Example 58, 1-(4-Bromo-benzyl)-3,3-bis-(4-hydroxy-3,5-dimethyl-phenyl)-1,3-dihydro-indol-2-one]
≤ 500	Cc1cc(C2(c3cc(C)c(O)c(C)c3)C(=O)N(Cc3ccc([N+](=O)[O-])cc3)c3ccccc32)cc(C)c1O [Example 62, 3,3-Bis-(4-hydroxy-3,5-dimethyl-phenyl)-1-(4-nitro-benzyl)-1,3-dihydro-indol-2-one]
≤ 500	Cc1cc(C2(c3cc(C)c(O)c(C)c3)C(=O)N(Cc3ccccc3Br)c3ccccc32)cc(C)c1O [Example 63, 1-(2-Bromo-benzyl)-3,3-bis-(4-hydroxy-3,5-dimethyl-phenyl)-1,3-dihydro-indol-2-one]
≤ 500	Cc1cc(C2(c3cc(C)c(O)c(C)c3)C(=O)N(Cc3cccc(Br)c3)c3ccccc32)cc(C)c1O [Example 64, 1-(3-Bromo-benzyl)-3,3-bis-(4-hydroxy-3,5-dimethyl-phenyl)-1,3-dihydro-indol-2-one]
≤ 500	Cc1cc(C2(c3cc(C)c(O)c(C)c3)C(=O)N(Cc3ccccc3[N+](=O)[O-])c3ccccc32)cc(C)c1O [Example 65, 3,3-Bis-(4-hydroxy-3,5-dimethyl-phenyl)-1-(2-nitro-benzyl)-1,3-dihydro-indol-2-one]
≤ 500	Cc1cc(C2(c3cc(C)c(O)c(C)c3)C(=O)N(Cc3cccc(F)c3F)c3ccccc32)cc(C)c1O [Example 66, 1-(2,3-Difluoro-benzyl)-3,3-bis-(4-hydroxy-3,5-dimethyl-phenyl)-1,3-dihydro-indol-2-one]
≤ 500	Cc1cc(C2(c3cc(C)c(O)c(C)c3)C(=O)N(Cc3ccc(OC(F)(F)F)cc3)c3ccccc32)cc(C)c1O [Example 67, 3,3-Bis-(4-hydroxy-3,5-dimethyl-phenyl)-1-(4-trifluoromethoxy-benzyl)-1,3-dihydro-indol-2-one]
≤ 500	Cc1cc(C2(c3cc(C)c(O)c(C)c3)C(=O)N(Cc3ccc(C(F)(F)F)cc3C(F)(F)F)c3ccccc32)cc(C)c1O [Example 68, 1-(2,4-Bis-trifluoromethyl-benzyl)-3,3-bis-(4-hydroxy-3,5-dimethyl-phenyl)-1,3-dihydro-indol-2-one]
≤ 500	Cc1cc(C2(c3cc(C)c(O)c(C)c3)C(=O)N(Cc3cccc(C)c3F)c3ccccc32)cc(C)c1O [Example 70, 1-(2-Fluoro-3-methyl-benzyl)-3,3-bis-(4-hydroxy-3,5-dimethyl-phenyl)-1,3-dihydro-indol-2-one]
≤ 500	Cc1cc(C2(c3cc(C)c(O)c(C)c3)C(=O)N(Cc3ccc([N+](=O)[O-])o3)c3ccccc32)cc(C)c1O [Example 73, 3,3-Bis-(4-hydroxy-3,5-dimethyl-phenyl)-1-(5-nitro-furan-2-ylmethyl)-1,3-dihydro-indol-2-one]
≤ 500	Cc1cc(C2(c3cc(C)c(O)c(C)c3)C(=O)N(Cc3ccc(OCc4ccccc4)cc3)c3ccccc32)cc(C)c1O [Example 74, 1-(4-Benzyloxy-benzyl)-3,3-bis-(4-hydroxy-3,5-dimethyl-phenyl)-1,3-dihydro-indol-2-one]
≤ 500	Cc1cc(C2(c3cc(C)c(O)c(C)c3)C(=O)N(Cc3c(F)cccc3Cl)c3ccccc32)cc(C)c1O [Example 76, 1-(2-Chloro-6-fluoro-benzyl)-3,3-bis-(4-hydroxy-3,5-dimethyl-phenyl)-1,3-dihydro-indol-2-one]
≤ 500	CCCCCN1C(=O)C(c2cc(C)c(O)c(C)c2)(c2cc(C)c(O)c(C)c2)c2ccccc21 [Example 77, 3,3-Bis-(4-hydroxy-3,5-dimethyl-phenyl)-1-pentyl-1,3-dihydro-indol-2-one]
≤ 500	Cc1cc(C2(c3cc(C)c(O)c(C)c3)C(=O)N(CC#N)c3ccccc32)cc(C)c1O [Example 78, [3,3-Bis-(4-hydroxy-3,5-dimethyl-phenyl)-2-oxo-2,3-dihydro-indol-1-yl]-acetonitrile]
≤ 500	Cc1cc(C2(c3cc(C)c(O)c(C)c3)C(=O)N(Cc3ccccc3OC(F)F)c3ccccc32)cc(C)c1O [Example 79, 1-(2-Difluoromethoxy-benzyl)-3,3-bis-(4-hydroxy-3,5-dimethyl-phenyl)-1,3-dihydro-indol-2-one]
≤ 500	CCOCCN1C(=O)C(c2cc(C)c(O)c(C)c2)(c2cc(C)c(O)c(C)c2)c2ccccc21 [Example 80, 1-(2-Ethoxy-ethyl)-3,3-bis-(4-hydroxy-3,5-dimethyl-phenyl)-1,3-dihydro-indol-2-one]
≤ 500	Cc1cc(C2(c3cc(C)c(O)c(C)c3)C(=O)N(Cc3ccc(Cl)cc3F)c3ccccc32)cc(C)c1O [Example 83, 1-(4-Chloro-2-fluoro-benzyl)-3,3-bis-(4-hydroxy-3,5-dimethyl-phenyl)-1,3-dihydro-indol-2-one]
≤ 500	Cc1cc(C2(c3cc(C)c(O)c(C)c3)C(=O)N(Cc3ccc(-c4csnn4)cc3)c3ccccc32)cc(C)c1O [Example 84, 3,3-Bis-(4-hydroxy-3,5-dimethyl-phenyl)-1-(4-[1,2,3]thiadiazol-4-yl-benzyl)-1,3-dihydro-indol-2-one]
